Converted amounts (≈) assume the structure as drawn.
What was measured:
Experiment in all cases: Bacterial Assay: Determination of Antibacterial Activity (MIC, broth microdilution or agar dilution)
Assay type in all cases: cell-based
[1] = test system: Clostridium difficile (Isolate ID ATCC 9689); conditions: Clostridioides difficile, ATCC9689, 48 h, read-out: C. difficile MIC Activity Range
Outline: (§1)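 MICs were set by CLSI broth microdilution or agar dilution for anaerobes, read visually after 48 hours at 37° C. under anaerobic gas packs. Medium was reinforced clostridial medium with 0.1% defibrinated horse blood; values are binned as A ≦1.01, B >1.0-4.0, C >4.0-16 μg/mL.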

[2] = test system: Clostridium difficile (Isolate ID 027-01); conditions: Clostridioides difficile, 48 h, read-out: MIC (μg/mL) C. difficile (027-01)
Outline: as §1

[3] = test system: Clostridium difficile (Isolate ID BI-9); conditions: Clostridioides difficile, 48 h, read-out: MIC (μg/mL) C. difficile (B-I9)
Outline: as §1

Compound NC(=O)c1c(F)ccc(O[C@H](CO)c2nc(-c3ccc(C(F)(F)F)cc3)c(Br)o2)c1F (single isomer, unassigned) [Compound 47] has an MIC [1] of less than 1.01 µg/mL, an MIC [2] of 0.12 µg/mL (≈ 0.237 µM) and an MIC [3] of 0.12 µg/mL (≈ 0.237 µM).
C#CCCCCCCCCCOc1ccc(F)c(C(N)=O)c1F [Compound 7, 2,6-difluoro-3-(undec-10-yn-1-yloxy)benzamide] was tested, and the MIC [1] was less than 1.01 µg/mL, the MIC [2] was 0.12 µg/mL (≈ 0.371 µM) and the MIC [3] was 0.12 µg/mL (≈ 0.371 µM).
With CCCCCCCCCOc1cccc(C(N)=O)c1F [Compound 8, 2-fluoro-3-(nonyloxy)benzamide] the MIC [1] was less than 1.01 µg/mL, the MIC [2] was 0.5 µg/mL (≈ 1.78 µM) and the MIC [3] was 0.25 µg/mL (≈ 0.889 µM).
C#CCCCCCCCCCOc1cccc(C(N)=O)c1F [Compound 9, 2-fluoro-3-(undec-10-yn-1-yloxy)benzamide] gave an MIC [1] of less than 1.01 µg/mL, an MIC [2] of 1 µg/mL (≈ 3.27 µM) and an MIC [3] of 0.5 µg/mL (≈ 1.64 µM).
COc1ccc(-c2csc(COc3ccc(F)c(C(N)=O)c3F)n2)cc1 [Compound 10, 2,6-difluoro-3-{[4-(4-methoxyphenyl)-1,3-thiazol-2-yl]methoxy}benzamide] gave an MIC [1] of 1 to 4 µg/mL (≈ 2.66 to 10.6 µM), an MIC [2] of 4 µg/mL (≈ 10.6 µM) and an MIC [3] of 2 µg/mL (≈ 5.31 µM).
Work on NC(=O)c1c(F)ccc(OCc2nc(-c3ccc(Cl)cc3)cs2)c1F [Compound 11, 3-{[4-(4-chlorophenyl)-1,3-thiazol-2-yl]methoxy}-2,6-difluorobenzamide] yielded an MIC [1] of less than 1.01 µg/mL, an MIC [2] of 0.25 µg/mL (≈ 0.657 µM) and an MIC [3] of 0.25 µg/mL (≈ 0.657 µM).
For NC(=O)c1c(F)ccc(OCc2nc(-c3ccc(Cl)cc3)c(Br)s2)c1F [Compound 12, 3-{[5-bromo-4-(4-chlorophenyl)-1,3-thiazol-2-yl]methoxy}-2,6-difluorobenzamide], the MIC [1] was less than 1.01 µg/mL, the MIC [2] was 1 µg/mL (≈ 2.18 µM) and the MIC [3] was 1 µg/mL (≈ 2.18 µM).
NC(=O)c1c(F)ccc(OCc2nc(-c3ccc(C(F)(F)F)cc3)cs2)c1F [Compound 16, 2,6-difluoro-3-({4-[4-(trifluoromethyl)phenyl]-1,3-thiazol-2-yl}methoxy)benzamide] was tested, and the MIC [1] was less than 1.01 µg/mL, the MIC [2] was 0.5 µg/mL (≈ 1.21 µM) and the MIC [3] was 0.5 µg/mL (≈ 1.21 µM).
NC(=O)c1c(F)ccc(OCc2nc(-c3ccc(OC(F)(F)F)cc3)cs2)c1F [Compound 17, 2,6-difluoro-3-({4-[4-(trifluoromethoxy)phenyl]-1,3-thiazol-2-yl}methoxy)benzamide] showed an MIC [1] of less than 1.01 µg/mL, an MIC [2] of 0.185 µg/mL (≈ 0.43 µM) and an MIC [3] of 0.25 µg/mL (≈ 0.581 µM).
NC(=O)c1c(F)ccc(OCc2nc(-c3ccc(Cl)cc3)ns2)c1F [Compound 19, 3-{[3-(4-chlorophenyl)-1,2,4-thiadiazol-5-yl]methoxy}-2,6-difluorobenzamide] gave an MIC [1] of less than 1.01 µg/mL, an MIC [2] of 1 µg/mL (≈ 2.62 µM) and an MIC [3] of 2 µg/mL (≈ 5.24 µM).
Compound NC(=O)c1c(F)ccc(OCc2nc(-c3ccc(OC(F)(F)F)cc3)ns2)c1F [Compound 20, 2,6-difluoro-3-({3[4-(trifluoromethoxy)phenyl]-1,2,4-thiadiazol-5-yl}methoxy)benzamide] has an MIC [1] of less than 1.01 µg/mL, an MIC [2] of 0.06 µg/mL (≈ 0.139 µM) and an MIC [3] of 0.06 µg/mL (≈ 0.139 µM).
N/C(=N\O)c1c(F)ccc(OCc2nc(-c3ccc(Cl)cc3)ns2)c1F [Compound 21, 3-{[3-(4-chlorophenyl)-1,2,4-thiadiazol-5-yl]methoxy}-2,6-difluoro-N′-hydroxybenzene-carboximidamide] was tested, and the MIC [1] was less than 1.01 µg/mL, the MIC [2] was 5 µg/mL (≈ 12.6 µM) and the MIC [3] was 5 µg/mL (≈ 12.6 µM).
In the case of NC(=O)c1c(F)ccc(OC(CO)c2nc(-c3ccc(Cl)cc3)c(Br)o2)c1F (stereo not drawn) [Compound 33, 3-{1-[5-bromo-4-(4-chlorophenyl)-1,3-oxazol-2-yl]-2-hydroxyethoxy}-2,6-difluorobenzamide], the MIC [1] is reported as less than 1.01 µg/mL, the MIC [2] is reported as 0.12 µg/mL (≈ 0.253 µM) and the MIC [3] is reported as 0.5 µg/mL (≈ 1.06 µM).
CN(C)C(=O)OCC(Oc1ccc(F)c(C(N)=O)c1F)c1nc(-c2ccc(C(F)(F)F)cc2)c(Br)o1 (stereo not drawn) [Compound 49, 2-{5-bromo-4-[4-(trifluoromethyl)phenyl]-1,3-oxazol-2-yl}-2-(3-carbamoyl-2,4-difluorophenoxy)ethyl dimethylcarbamate] gave an MIC [1] of 1 to 4 µg/mL (≈ 1.73 to 6.92 µM), an MIC [2] of 2 µg/mL (≈ 3.46 µM) and an MIC [3] of 2 µg/mL (≈ 3.46 µM).
In the case of CC(=O)OCC(Oc1cccc(C(N)=O)c1F)c1nc(-c2ccc(C(F)(F)F)cc2)c(Br)o1 (stereo not drawn) [Compound 57, 2-{5-bromo-4-[4-(trifluoromethyl)phenyl]-1,3-oxazol-2-yl}-2-(3-carbamoyl-2-fluorophenoxy)ethyl acetate], the MIC [1] is reported as less than 1.01 µg/mL, the MIC [2] is reported as 0.5 µg/mL and the MIC [3] is reported as 0.5 µg/mL.
Work on COc1ncccc1CNC(=O)OCC(Oc1ccc(F)c(C(N)=O)c1F)c1nc(-c2ccc(C(F)(F)F)cc2)c(Br)o1 (stereo not drawn) [Compound 74, 2-{5-bromo-4-[4-(trifluoromethyl)phenyl]-1,3-oxazol-2-yl}-2-(3-carbamoyl-2,4-difluorophenoxy)ethyl [(2-methoxypyridin-3-yl)methyl]carbamate] yielded an MIC [1] of less than 1.01 µg/mL, an MIC [2] of 0.5 µg/mL (≈ 0.745 µM) and an MIC [3] of 0.5 µg/mL (≈ 0.745 µM).
For Cn1cccc1CNC(=O)OCC(Oc1ccc(F)c(C(N)=O)c1F)c1nc(-c2ccc(C(F)(F)F)cc2)c(Br)o1 (stereo not drawn) [Compound 80, 2-{5-bromo-4-[4-(trifluoromethyl)phenyl]-1,3-oxazol-2-yl}-2-(3-carbamoyl-2,4-difluorophenoxy)ethyl [(1-methyl-1H-pyrrol-2-yl)methyl]carbamate], the MIC [1] was less than 1.01 µg/mL, the MIC [2] was 0.5 µg/mL (≈ 0.777 µM) and the MIC [3] was 0.5 µg/mL (≈ 0.777 µM).
In the case of NC(=O)c1c(F)ccc(OCc2nc(-c3ccc(Cl)cc3)c(Br)o2)c1F [Compound 104, 3-{[5-bromo-4-(4-chlorophenyl)-1,3-oxazol-2-yl]methoxy}-2,6-difluorobenzamide], the MIC [1] is reported as less than 1.01 µg/mL, the MIC [2] is reported as 0.12 µg/mL (≈ 0.27 µM) and the MIC [3] is reported as 0.12 µg/mL (≈ 0.27 µM).
With NC(=O)c1c(F)ccc(OCc2nc(-c3ccc(OC(F)(F)F)cc3)c(Br)s2)c1F [Compound 105, 3-({5-bromo-4-[4-(trifluoromethoxy)phenyl]-1,3-thiazol-2-yl}methoxy)-2,6-difluorobenzamide] the MIC [1] was less than 1.01 µg/mL, the MIC [2] was 0.5 µg/mL (≈ 0.982 µM) and the MIC [3] was 1 µg/mL (≈ 1.96 µM).
CCCCCCCCCOc1ccc(F)c(/C(N)=N/O)c1F [Compound 106, 2,6-difluoro-N′-hydroxy-3-(nonyloxy)benzenecarboximidamide] showed an MIC [1] of less than 1.01 µg/mL, an MIC [2] of 0.5 µg/mL (≈ 1.59 µM) and an MIC [3] of 0.5 µg/mL (≈ 1.59 µM).
NC(=O)c1c(F)ccc(OCc2cc(-c3ccc(Cl)cc3)cs2)c1F [Compound 188, 3-{[4-(4-chlorophenyl)thiophen-2-yl]methoxy}-2,6-difluorobenzamide] gave an MIC [1] of less than 1.01 µg/mL.
Compound CCOC(=O)c1cc(Cl)ccc1-c1csc(COc2ccc(F)c(C(N)=O)c2F)n1 [Compound 190, ethyl 2-{2-[(3-carbamoyl-2,4-difluorophenoxy)methyl]-1,3-thiazol-4-yl}-5-chlorobenzoate] has an MIC [1] of 4 to 16 µg/mL (≈ 8.83 to 35.3 µM).
Work on COc1ccc(-c2nc(COc3ccc(F)c(C(N)=O)c3F)sc2-c2cccc(Cl)c2O)cc1 [Compound 191, 3-{[5-(3-chloro-2-hydroxyphenyl)-4-(4-methoxyphenyl)-1,3-thiazol-2-yl]methoxy}-2,6-difluorobenzamide] yielded an MIC [1] of 4 to 16 µg/mL (≈ 7.95 to 31.8 µM).
COc1cc(-c2csc(COc3ccc(F)c(C(N)=O)c3F)n2)ccc1Cl [Compound 195, 3-{[4-(4-chloro-3-methoxyphenyl)-1,3-thiazol-2-yl]methoxy}-2,6-difluorobenzamide] was tested, and the MIC [1] was 4 to 16 µg/mL (≈ 9.74 to 38.9 µM).
Work on NC(=O)c1c(F)ccc(OCc2nc(-c3ccc(Cl)c(O)c3)cs2)c1F [Compound 196, 3-{[4-(4-chloro-3-hydroxyphenyl)-1,3-thiazol-2-yl]methoxy}-2,6-difluorobenzamide] yielded an MIC [1] of 1 to 4 µg/mL (≈ 2.52 to 10.1 µM).
COc1ccc(C#Cc2csc(COc3ccc(F)c(C(N)=O)c3F)n2)cc1 [Compound 197, 2,6-difluoro-3-({4-[(4-methoxyphenyl)ethynyl]-1,3-thiazol-2-yl}methoxy)benzamide] was tested, and the MIC [1] was less than 1.01 µg/mL.
With NC(=O)c1c(F)ccc(OCc2nc(CCc3cccc(Cl)c3)cs2)c1F [Compound 199, 3-({4-[2-(3-chlorophenyl)ethyl]-1,3-thiazol-2-yl}methoxy)-2,6-difluorobenzamide] the MIC [1] was less than 1.01 µg/mL.
Compound Cc1nn(-c2ccc(Cl)cc2)nc1COc1ccc(F)c(C(N)=O)c1F [Compound 200, 3-{[2-(4-chlorophenyl)-5-methyl-2H-1,2,3-triazol-4-yl]methoxy}-2,6-difluorobenzamide] has an MIC [1] of 1 to 4 µg/mL (≈ 2.64 to 10.6 µM).
NC(=O)c1c(F)ccc(OCc2nc(-c3ccc(Cl)nc3)cs2)c1F [Compound 201, 3-{[4-(6-chloropyridin-3-yl)-1,3-thiazol-2-yl]methoxy}-2,6-difluorobenzamide] showed an MIC [1] of 1 to 4 µg/mL (≈ 2.62 to 10.5 µM).
NC(=O)c1c(F)ccc(OCc2cnn(-c3ccc(Cl)cc3)n2)c1F [Compound 202, 3-{[2-(4-chlorophenyl)-2H-1,2,3-triazol-4-yl]methoxy}-2,6-difluorobenzamide] gave an MIC [1] of 1 to 4 µg/mL (≈ 2.74 to 11 µM).
Work on COc1ccc(-c2nc(COc3ccc(F)c(C(N)=O)c3F)oc2-c2cccc(Cl)c2O)cc1 [Compound 204, 3-{[5-(3-chloro-2-hydroxyphenyl)-4-(4-methoxyphenyl)-1,3-oxazol-2-yl]methoxy}-2,6-difluorobenzamide] yielded an MIC [1] of 4 to 16 µg/mL (≈ 8.22 to 32.9 µM).
With N#Cc1cc(Cl)ccc1-c1csc(COc2ccc(F)c(C(N)=O)c2F)n1 [Compound 206, 3-{[4-(4-chloro-2-cyanophenyl)-1,3-thiazol-2-yl]methoxy}-2,6-difluorobenzamide] the MIC [1] was less than 1.01 µg/mL.
Compound NC(=O)c1c(F)ccc(OCc2nc(-c3ccc(Cl)cc3)c(-c3cccc(O)c3)o2)c1F [Compound 210, 3-{[4-(4-chlorophenyl)-5-(3-hydroxyphenyl)-1,3-oxazol-2-yl]methoxy}-2,6-difluorobenzamide] has an MIC [1] of 4 to 16 µg/mL (≈ 8.76 to 35 µM).
With NC(=O)c1c(F)ccc(OCc2nc(-c3ccc(C(F)(F)F)cc3)c(Br)s2)c1F [Compound 211, 3-({5-bromo-4-[4-(trifluoromethyl)phenyl]-1,3-thiazol-2-yl}methoxy)-2,6-difluorobenzamide] the MIC [1] was 1 to 4 µg/mL (≈ 2.03 to 8.11 µM).
Work on CC(Nc1ccc(F)c(C(N)=O)c1F)c1nc(-c2ccc(OC(F)(F)F)cc2)c(Br)o1 (stereo not drawn) [Compound 212, 3-[(1-{5-bromo-4-[4-(trifluoromethoxy)phenyl]-1,3-oxazol-2-yl}ethyl)amino]-2,6-difluorobenzamide] yielded an MIC [1] of 1 to 4 µg/mL (≈ 1.98 to 7.9 µM).

From patent publication US20170305943A1, “COMPOUNDS FOR THE TREATMENT OF BACTERIAL INFECTIONS” (priority 2014, published 2017)
